Test results published in the NIST ThermoML archive (doi:10.1016/j.jct.2005.10.009).
Numbers after ± are expanded uncertainties.

Key:
[1] = 101.33 kPa, Liquid; for speed of sound: Pulse-echo method; for mass density: Pycnometric method
[2] = molar heat capacity at constant pressure; settings: 101 kPa, Liquid, Small sample (50 mg) DSC

CCCCCCC [heptane]
speed of sound ([1]; 293.13 K): 1151.9 ± 1.2 m/s
mass density ([1]; 293.15 K): 683.81 ± 0.62 kg/m3
speed of sound ([1]; 298.12 K): 1130.3 ± 1.2 m/s
mass density ([1]; 298.15 K): 679.6 ± 0.62 kg/m3
speed of sound ([1]; 303.1 K): 1108.8 ± 1.2 m/s
mass density ([1]; 303.15 K): 675.38 ± 0.63 kg/m3
speed of sound ([1]; 308.07 K): 1087.5 ± 1.2 m/s
mass density ([1]; 308.15 K): 671.05 ± 0.64 kg/m3
speed of sound ([1]; 313.03 K): 1066.3 ± 1.2 m/s
mass density ([1]; 313.15 K): 666.78 ± 0.64 kg/m3
mass density ([1]; 318.15 K): 662.42 ± 0.65 kg/m3
speed of sound ([1]; 318.33 K): 1043.9 ± 1.2 m/s

CCCCCCCCCCO [decan-1-ol]
speed of sound ([1]; 293.1 K): 1397.2 ± 1.6 m/s
mass density ([1]; 293.15 K): 829.77 ± 0.67 kg/m3
speed of sound ([1]; 298.07 K): 1380 ± 1.6 m/s
mass density ([1]; 298.15 K): 826.38 ± 0.67 kg/m3
speed of sound ([1]; 303.04 K): 1362.8 ± 1.6 m/s
mass density ([1]; 303.15 K): 822.98 ± 0.67 kg/m3
speed of sound ([1]; 308.04 K): 1345.8 ± 1.6 m/s
mass density ([1]; 308.15 K): 819.62 ± 0.67 kg/m3
speed of sound ([1]; 313.01 K): 1329 ± 1.6 m/s
mass density ([1]; 313.15 K): 816.15 ± 0.68 kg/m3
mass density ([1]; 318.15 K): 812.67 ± 0.68 kg/m3
speed of sound ([1]; 318.18 K): 1311.7 ± 1.6 m/s
molar heat capacity at constant pressure ([2]; 290.91 K): 364.49 ± 5.7 J/K/mol
molar heat capacity at constant pressure ([2]; 291.15 K): 364.8 ± 5.7 J/K/mol
molar heat capacity at constant pressure ([2]; 292.15 K): 366.05 ± 5.7 J/K/mol
molar heat capacity at constant pressure ([2]; 293.15 K): 367.19 ± 5.7 J/K/mol
molar heat capacity at constant pressure ([2]; 294.15 K): 368.25 ± 5.7 J/K/mol
molar heat capacity at constant pressure ([2]; 295.15 K): 369.35 ± 5.7 J/K/mol
molar heat capacity at constant pressure ([2]; 296.15 K): 370.35 ± 5.7 J/K/mol
molar heat capacity at constant pressure ([2]; 297.15 K): 371.6 ± 5.8 J/K/mol
molar heat capacity at constant pressure ([2]; 298.15 K): 372.77 ± 5.8 J/K/mol
molar heat capacity at constant pressure ([2]; 299.15 K): 373.71 ± 5.8 J/K/mol
molar heat capacity at constant pressure ([2]; 300.15 K): 374.91 ± 5.8 J/K/mol
molar heat capacity at constant pressure ([2]; 301.15 K): 375.89 ± 5.8 J/K/mol
molar heat capacity at constant pressure ([2]; 302.15 K): 377.05 ± 5.8 J/K/mol
molar heat capacity at constant pressure ([2]; 303.15 K): 378.2 ± 5.9 J/K/mol
molar heat capacity at constant pressure ([2]; 304.15 K): 379.47 ± 5.9 J/K/mol
molar heat capacity at constant pressure ([2]; 305.15 K): 380.58 ± 5.9 J/K/mol
molar heat capacity at constant pressure ([2]; 306.15 K): 381.75 ± 5.9 J/K/mol
molar heat capacity at constant pressure ([2]; 307.15 K): 382.43 ± 5.9 J/K/mol
molar heat capacity at constant pressure ([2]; 308.15 K): 384.6 ± 6 J/K/mol
molar heat capacity at constant pressure ([2]; 309.15 K): 385.42 ± 6 J/K/mol
molar heat capacity at constant pressure ([2]; 310.15 K): 386.61 ± 6 J/K/mol
molar heat capacity at constant pressure ([2]; 311.15 K): 387.89 ± 6 J/K/mol
molar heat capacity at constant pressure ([2]; 312.15 K): 389.03 ± 6 J/K/mol
molar heat capacity at constant pressure ([2]; 313.15 K): 390.28 ± 6 J/K/mol
molar heat capacity at constant pressure ([2]; 314.15 K): 391.58 ± 6.1 J/K/mol
molar heat capacity at constant pressure ([2]; 315.15 K): 392.8 ± 6.1 J/K/mol
molar heat capacity at constant pressure ([2]; 316.15 K): 394.11 ± 6.1 J/K/mol
molar heat capacity at constant pressure ([2]; 317.15 K): 395.3 ± 6.1 J/K/mol
molar heat capacity at constant pressure ([2]; 318.15 K): 396.66 ± 6.2 J/K/mol
molar heat capacity at constant pressure ([2]; 318.39 K): 396.93 ± 6.2 J/K/mol
